Measurements: patent US20220125747A1, “APPLICATION OF ACTIVE INGREDIENT WGX50 IN ZANTHOXYLUM BUNGEANUM EXTRACT” (Shanghai Jiao Tong University, priority 2020, published 2022)

Key:
Type in all cases: cell-based
keratinocytes = assay: cytotoxicity test based on keratinocytes (MTT); settings: for Cell vitality Mean: keratinocytes, 24 hours, MTT
Experimental: Embodiment 1, cytotoxicity test based on keratinocytes. Set up 8 concentration gradients, and set up 3 repeating holes under each concentration. At the same time, solvent control hole, zero adjustment hole (KC2500) and positive control hole (PC, 4% Dimethyl sulfoxide, DMSO) are set up in the experiment. After incubation for 24 hours, the cell viability is detected by MTT method, and the maximum safe concentration of cell administration is screened. The MTT test results are shown in Table 1, in which the GraphPad Prism Program software is used for mapping, and T-test statistical analysis is used among all groups. P-value<0.05 indicates significant difference, and P-value<0.01 indicates extremely significant difference. According to the results of MTT assay, the concentration near the inflection point of cell vitality is selected, and after incubation and culture for 24 hours, the cell morphology is observed under the inverted microscope and photographed (20×), and the morphological detection results are shown in FIG. 2.

melanocytes = assay: cytotoxicity test based on melanocytes (MTT); settings: for Cell vitality Mean: melanocytes, 24 hours
Experimental: Embodiment 2, cytotoxicity test based on melanocytes. Set up 8 concentration gradients, and set up 3 repeating holes under each concentration. At the same time, solvent control well, Medium-254 well and positive control well (PC, 8% DMSO) are set up in the experiment. After incubation for 24 hours, the cell viability is detected by MTT method, and the maximum safe concentration of cell administration is screened.

TNFα = assay: anti-inflammatory test of keratinocytes stimulated by UVB, TNFα ELISA; settings: for TNFα Decreased ratio (compared to NC) / TNFα Average concentration: 24 h; for TNFα Average concentration: ELISA of culture supernatant
Description: (§1) 3. Anti-inflammatory test based on UVB (ultraviolet radiation b) stimulation of keratinocytes. The blank control (oil-soluble), solvent control (oil-soluble), positive control and sample groups are grouped in the experiment. The detection indexes are TNFα (a pro-inflammatory factors, the NF-κB signaling pathway mediates and initiates the transcription of TNFα (abbreviation for tumor necrosis factor alpha), and after TNFα is synthesized, it binds to its receptor and in turn activates the NF-κB signaling pathway) and IL1-α (a pro-inflammatory factor being non-hydrophobic polypeptide, which is secreted out of cells after cell membrane damage, and then the pro-inflammatory factor binds to its corresponding receptor IL1R and activates NF-κB to induce inflammatory cascade reaction), the detection and analysis are performed according to the operating manual of the TNFα and IL1-α kits.
Embodiment 5, anti-inflammatory test of keratinocytes stimulated by UVB.
(§2) TNFα and IL1-α expression detection process: after 24 hours of incubation, the cell culture supernatant is collected, and the detection and analysis are performed according to the operating instructions of the TNFα and IL1-α kit. When using the T-Test method for statistical analysis, the NC group is compared with the BC group, and the significance is indicated by #, P-value<0.05 is indicated as #, P-value<0.01 is indicated as ##; sample group and positive control group are compared with NC group, and significance is represented by *, P-value<0.05 is represented by *, P-value<0.01 is represented by * *.

IL-1α = assay: anti-inflammatory test of keratinocytes stimulated by UVB, IL-1α ELISA; settings: for IL-1α Decreased ratio (compared to NC) / IL-1α Average concentration: 24 h; for IL-1α Average concentration: ELISA of culture supernatant
Description: as §1, §2

AQP3 gene = assay: moisturizing gene test based on keratinocytes (qRT-PCR), AQP3; settings: 5 μM, 24 h
Experimental: (§3) 1. Moisturizing gene test based on keratinocytes. First, the cytotoxicity of keratinocytes is tested, and then the experimental design is carried out, and a blank control group and a sample group are set up. The detection indexes are AQP3 (aquaporin), CD44 (cell-surface glycoproteins), Filaggrin (protein), claudin-1 (tight junction protein) and HAS2 (hyaluronic acid synthetase). RNA extraction, reverse transcription and fluorescence quantitative PCR are carried out, and the results are calculated by 2^−ΔΔCT method.
(§4) Embodiment 3, moisturizing gene test based on keratinocytes.
AQP3 aquaporin in the detection index, located on the cell membrane, has the function of transporting water and plays an important role in the process of skin moisturizing.
(§5) Gene detection process: after incubation for 24 hours, the cells are sampled, and RNA extraction, reverse transcription and fluorescence quantitative PCR detection are carried out according to the kit instruction, and the results are calculated by 2^−ΔΔΔCT method. When statistical analysis is carried out by T-Test method, significance is represented by *, P-value<0.05 is represented by *, and P-value<0.01 is represented by * *.

Filaggrin = assay: moisturizing gene test based on keratinocytes (qRT-PCR), Filaggrin; settings: 5 μM, 24 h
Experimental: as §3, §4, §5

Claudin-1 = assay: moisturizing gene test based on keratinocytes (qRT-PCR), Claudin-1; settings: 5 μM, 24 h
Experimental: as §3, §4, §5

HAS2 = assay: moisturizing gene test based on keratinocytes (qRT-PCR), HAS2; settings: 5 μM, 24 h
Experimental: as §3, §4, §5

CD44 = assay: moisturizing gene test based on keratinocytes (qRT-PCR), CD44; settings: 5 μM, 24 h
Experimental: as §3, §4, §5

MC1R = assay: whitening gene test based on melanocytes (qRT-PCR), MC1R; settings: 100 μM, 24 h
Experimental: (§6) 2. Whitening gene test based on melanocytes. First, the cytotoxicity of melanocytes is tested, and then the experimental design is carried out, and a blank control group and a sample group are set up. The detection indexes are MC1R (melanocortin receptor), MITF (melanogenesis transcription factor), TYR (melanin synthesis and transport related gene) and TYP-1 (tyrosinase related protein). RNA extraction, reverse transcription and fluorescence quantitative PCR are carried out, and the results are calculated by 2^−ΔΔCT method.
(§7) Embodiment 4, whitening gene test based on melanocytes.
as §5, with “after” for “after incubation for”, “hours of incubation,” for “hours,”, “instructions,” for “instruction,”

MITF = assay: whitening gene test based on melanocytes (qRT-PCR), MITF; settings: 100 μM, 24 h
Experimental: as §6, §7
as §5, with “after” for “after incubation for”, “hours of incubation,” for “hours,”, “instructions,” for “instruction,”

TYR = assay: whitening gene test based on melanocytes (qRT-PCR), TYR; settings: 100 μM, 24 h
Experimental: as §6, §7
as §5, with “after” for “after incubation for”, “hours of incubation,” for “hours,”, “instructions,” for “instruction,”

TRP-1 = assay: whitening gene test based on melanocytes (qRT-PCR), TRP-1; settings: 100 μM, 24 h
Experimental: as §6, §7
as §5, with “after” for “after incubation for”, “hours of incubation,” for “hours,”, “instructions,” for “instruction,”

[1] = 5 μM, compared with the positive control group (so in the source), P-value<0.01

## C[S+](C)[O-] [DMSO, Dimethyl sulfoxide, reference compound]
keratinocytes; positive control 4% DMSO
  Cell vitality Mean: 30.27%
melanocytes; positive control 8% DMSO
  Cell vitality Mean: 24.23%

## C[C@@H]1C[C@H]2[C@@H]3CCC4=CC(=O)C=C[C@]4(C)[C@@]3(F)[C@@H](O)C[C@]2(C)[C@@]1(O)C(=O)CO [PC, Dexamethasone, reference compound]
TNFα; 100 μg/mL
  TNFα Decreased ratio (compared to NC): 94%
  TNFα Average concentration: 8.34 pg/mL
TNFα; 100 μg/mL, P-value<0.01
  secretion of TNFα compared with the solvent control group: decreases significantly
IL-1α; 100 μg/mL
  IL-1α Decreased ratio (compared to NC): 29%
  IL-1α Average concentration: 93.97 pg/mL
IL-1α; 100 μg/mL, P-Value<0.05
  secretion of IL-1α compared with the solvent control group: decreases significantly

## COc1ccc(CCNC(=O)/C=C/c2ccccc2)cc1OC [WGX50, (E)-N[2-(3,4-dimethoxyphenyl)ethyl]-3-phenylacrylamide]
keratinocytes; in the concentration range of 5 μM, MTT and morphological results
  cytotoxicity to keratinocytes: no cytotoxicity
keratinocytes; 0.5 μM
  Cell vitality Mean: 106.81%
keratinocytes; 1 μM
  Cell vitality Mean: 93.72%
keratinocytes; 2.5 μM
  Cell vitality Mean: 93.60%
keratinocytes; 5 μM
  Cell vitality Mean: 93.01%
keratinocytes; 10 μM
  Cell vitality Mean: 84.00%
keratinocytes; 25 μM
  Cell vitality Mean: 66.77%
keratinocytes; 50 μM
  Cell vitality Mean: 57.35%
keratinocytes; 100 μM
  Cell vitality Mean: 50.36%
melanocytes; in the concentration range of 100 μM
  cytotoxicity to melanocytes: no cytotoxicity
melanocytes; 0.5 μM
  Cell vitality Mean: 105.78%
melanocytes; 1 μM
  Cell vitality Mean: 99.02%
melanocytes; 2.5 μM
  Cell vitality Mean: 96.68%
melanocytes; 5 μM
  Cell vitality Mean: 95.56%
melanocytes; 10 μM
  Cell vitality Mean: 99.51%
melanocytes; 25 μM
  Cell vitality Mean: 99.51%
melanocytes; 50 μM
  Cell vitality Mean: 108.86%
melanocytes; 100 μM
  Cell vitality Mean: 96.62%
AQP3 gene; P-value<0.01
  expression of AQP3 gene in keratinocytes compared with the blank control group: significantly promotes
AQP3 gene; qRT-PCR
  AQP3 Increased ratio (compared to BC): 34.20%
  AQP3 gene expression Mean (2^−ΔΔCT): 1.345
Filaggrin
  Filaggrin Increased ratio (compared to BC): 7.20%
  Filaggrin gene expression Mean (2^−ΔΔCT): 1.101
Claudin-1
  Claudin-1 Increased ratio (compared to BC): 17.50%
  Claudin-1 gene expression Mean (2^−ΔΔCT): 1.182
HAS2
  HAS2 Increased ratio (compared to BC): −14.70%
  HAS2 gene expression Mean (2^−ΔΔCT): 0.898
CD44
  CD44 Increased ratio (compared to BC): −21.90%
  CD44 gene expression Mean (2^−ΔΔCT): 0.785
MC1R; P-value<0.01
  expression of MC1R gene in melanocytes compared with the blank control group: significantly inhibits
MC1R; qRT-PCR
  MC1R Increased ratio (compared to BC): 47.2%
  MC1R gene expression Mean (2^−ΔΔCT): 0.528
MITF; P-value<0.01
  expression of MITF gene in melanocytes compared with the blank control group: significantly inhibits
MITF; qRT-PCR
  MITF Increased ratio (compared to BC): 57.8%
  MITF gene expression Mean (2^−ΔΔCT): 0.432
TYR; P-value<0.01
  expression of TYR gene in melanocytes compared with the blank control group: significantly inhibits
TYR; qRT-PCR
  TYR Increased ratio (compared to BC): 51.8%
  TYR gene expression Mean (2^−ΔΔCT): 0.488
TRP-1; P-value<0.01
  expression of TYP-1 gene in melanocytes compared with the blank control group: significantly inhibits
TRP-1; qRT-PCR
  TRP-1 Increased ratio (compared to BC): 70.10%
  TRP-1 gene expression Mean (2^−ΔΔCT): 0.304
TNFα; 5 μM
  TNFα Decreased ratio (compared to NC): 85%
  TNFα Average concentration: 18.97 pg/mL
TNFα; [1]
  secretion of TNFα: decreases significantly
IL-1α; 5 μM
  IL-1α Decreased ratio (compared to NC): 67%
  IL-1α Average concentration: 43.65 pg/mL
IL-1α; [1]
  secretion of IL-1α: decreases significantly
